Data on 72 compounds can be found in the SangsterLogP compilation.

One series is described as follows: method code SF-AS, from DOI: 10.1248/cpb.17.2558. The note with it: pH 2.0.
The compound `NS(=O)(=O)c1ccc([N+](=O)[O-])c(C(F)(F)F)c1` had a log distribution coefficient (logD) of 1.73.

`Cc1ccccc1S(N)(=O)=O` showed a logD of 0.84.

The compound `Cc1cccc(S(N)(=O)=O)c1` displayed a logD of 0.85. This logD and that of the compound before are within 0.2 log units of each other.

Turning to `NS(=O)(=O)c1ccc(Cl)c([N+](=O)[O-])c1`, the logD is 1.91.

The series is the same for the next values; noted with them: pH 5.5.
Take `Nc1nnc(S(N)(=O)=O)s1`: the logD was -0.9.

A further series in a line: method code SF-AS, from DOI: 10.1016/s0045-6535(98)00368-3.
Settings: not given
In turn, `NS(=O)(=O)c1ccccc1Cl` registered a logP of 0.79.

As to `COC(=O)c1ccccc1CS(N)(=O)=O`, the logP was found to be 0.37.

As for `COC(=O)c1ccccc1S(N)(=O)=O`, the logP was 0.01.

Staying with this series, now noted: pH 2.0.
Compound `COc1cc(OC)nc(NC(=O)NS(=O)(=O)c2ccccc2Cl)n1` had a logD of 1.95.

A further series in a line: method code SF, from DOI: 10.1016/0165-1218(78)90089-7, PMID: 362190.
Settings: not given
For `CCN(CC)CCCNC(=O)C(=O)NN=Cc1ccc([N+](=O)[O-])o1`, the logP is -1.12.

As for `NC(=O)/C(=C\c1ccc([N+](=O)[O-])o1)c1ccco1`, the logP stood at 0.15.

In the case of `C=CCOCC(O)Cn1ccnc1[N+](=O)[O-]` (configuration not stated), the logP worked out at 0.3.

Consider `Cn1cnc([N+](=O)[O-])c1Cl`, for which the logP amounted to 0.3.

Consider `Cc1nc([N+](=O)[O-])cn1CCO`, for which the logP is -0.59.

Test in the next series: not given
Settings: not given
Regarding `Brc1cccnc1`, the logP is 1.5.

In the case of `Brc1ccncc1`, the logP came to 1.49.

In turn, `O=Cc1cccnc1` displayed a logP of 0.29.

Compound `CC(C)(C)c1ccncc1` returned a logP of 2.42.

As to `Nc1cccnc1`, the logP came out at 0.05.

Another series is described as follows: method code SF, from DOI: 10.1016/s0045-6535(97)00338-x.
Settings: not given
In turn, `CC(=O)Oc1ccc(F)cc1` yielded a logP of 1.41.

For `O=[N+]([O-])c1cc(F)ccc1O`, the logP amounted to 1.88.

Compound `O=S(=O)(CBr)c1ccc(F)cc1` had a logP of 1.74.

On to `CC(=O)Nc1ccc(F)cc1F`, for which the logP came out at 1.5.

Still in this series, the particulars now being: pH 2.0.
Turning to `O=C(O)COc1ccc(F)cc1`, the logD is 1.57.

Another series in a line: method code SF-AS, from DOI: 10.1081/jlc-120022394.
Settings: not given
`CCOC(=O)C(=CC=Cc1ccccc1)NC=O` displayed a logP of 2.91.

Turning to `CCOC(=O)C(=Cc1ccccc1Cl)NC=O`, the logP amounted to 2.41.

Take `CCOC(=O)C(=Cc1ccc2c(c1)OCO2)NC=O`: the logP turned out to be 1.66.

Take `CCOC(=O)C(=Cc1ccccc1)NC=O`: the logP turned out to be 2.48.

Compound `CCOC(=O)C(=Cc1cccc(Cl)c1)NC=O` came in with a logP of 2.51.

Regarding `CCOC(=O)C(=Cc1ccoc1)NC=O`, the logP was 2.08.

Test in another series: not given
Settings: not given
The source holds these as a separate data set.
In the case of `O=C1c2c(O)cccc2C(C(=O)c2ccccc2)c2cccc(O)c21`, the logP stood at 3.81.

Turning to `O=C1c2c(O)cccc2C(C(=O)c2ccc3c(c2)OCO3)c2cccc(O)c21`, the logP was found to be 3.68.

The compound `O=C1c2c(O)cccc2C(C(=O)c2cc(O)c(O)c(O)c2)c2cccc(O)c21` yielded a logP of 2.44.

In turn, `O=C1c2c(O)cccc2C(C(=O)c2ccc(O)c(O)c2)c2cccc(O)c21` gave a logP of 2.79.

`O=C1c2c(O)cccc2C(C(=O)c2ccc(O)cc2)c2cccc(O)c21` came in with a logP of 3.11.

Compound `O=C1c2c(O)cccc2C(C(=O)c2ccc(OCc3ccccc3)cc2)c2cccc(O)c21` registered a logP of 4.22.

Test in another series: not given
Settings: not given
The source holds these as a separate data set.
`O=[N+]([O-])c1ccc(Cl)cc1` returned a logP of 2.45.

`COc1cccc([N+](=O)[O-])c1` came in with a logP of 2.09.

The compound `CN(C)c1cccc([N+](=O)[O-])c1` had a logP of 2.16.

`O=[N+]([O-])c1ccccc1Br` gave a logP of 2.5.

Compound `O=[N+]([O-])c1cccc(Cl)c1` came in with a logP of 2.59.

Test in a further series: not given
Settings: not given
This is another data set of the same source.
On to `CCCCCCCCOC(=O)COc1ccc(Cl)cc1Cl`, for which the logP amounted to 5.86.

`ClC(Cl)=C(c1ccc(Cl)cc1)c1ccc(Cl)cc1` yielded a logP of 5.89.

`FC(F)(Cl)C(F)(Cl)Cl` yielded a logP of 3.16.

As to `C1CCCCCC2OC2CCCC1` (configuration not stated), the logP is 4.7.

Consider `ClC1=C(Cl)C(Cl)(Cl)C(Cl)=C1Cl`, for which the logP came to 5.04.

A further series can be described thus: method code SF, from DOI: 10.1021/jm00294a005, PMID: 5000561.
Settings: not given
In turn, `CO[C@@H]1[C@@H](O[C@@H]2O[C@H](C)[C@@H](O[C@H]3C[C@@](C)(O)[C@@H](OC(C)=O)[C@H](C)O3)[C@H](N(C)C)[C@H]2O)[C@@H](CC=O)C[C@@H](C)[C@@H](O)/C=C\C=C/C[C@@H](C)OC(=O)C[C@H]1O` yielded a logP of 0.88.

`CCCCC1CC(C(=O)NC(CC(C)O)C2OC(SC)C(O)C(O)C2O)N(C)C1` (configuration not stated) returned a logP of 0.56.

`CCC(=O)O[C@H]1[C@H](C)O[C@@H](O[C@H]2[C@H](N(C)C)[C@@H](O)[C@H](O[C@H]3[C@@H](CC=O)C[C@@H](C)[C@@H](O)/C=C/C=C/C[C@@H](C)OC(=O)C[C@@H](O)[C@@H]3OC)O[C@@H]2C)C[C@@]1(C)O` registered a logP of 1.38.

In turn, `CCCC(=O)O[C@H]1[C@H](C)O[C@@H](O[C@H]2[C@H](N(C)C)[C@@H](O)[C@H](O[C@H]3[C@@H](CC=O)C[C@@H](C)[C@@H](O)/C=C/C=C/C[C@@H](C)OC(=O)C[C@@H](O)[C@@H]3OC)O[C@@H]2C)C[C@@]1(C)O` returned a logP of 1.88.

On to `CCCC(=O)OC1C(C)OC(OC2C(C)OC(OC3C(CC=O)CC(C)C(O)/C=C\C=C\CC(C)OC(=O)CC(OC(C)=O)C3OC)C(O)C2N(C)C)CC1(C)O` (configuration not stated), for which the logP is 1.88.

The nature of a further series: method code SF-HPLC, from DOI: 10.1002/jps.10112, PMID: 12115830. The note with it: pH 7.4.
The compound `c1ccc(CSSc2ncc[nH]2)cc1` yielded a logD of 3.05.

Compound `CC(O)C(C)SSc1ncc[nH]1` (configuration not stated) yielded a logD of 1.39.

`CCC(C)SSc1ncc[nH]1` (configuration not stated) displayed a logD of 2.76.

For `CC(C)(C)SSc1ncc[nH]1`, the pH-dependent lipophilicity (logD) came to 2.56.

With `CCSSc1ncc[nH]1`, the logD was found to be 2.13.

Another series can be described thus: method code SF, from Huang, Q.; Wang, L.; Han, S.; Wang, G.; Gao, H. (1993). Quantitative relation between molecular structures and the hydrophobic parameters of halogenated arenes. Chemical Journal of Chinese ….
Settings: not given
For the compound `Brc1ccc(Br)c(Br)c1`, the logP amounted to 4.98.

Take `Brc1cccc(Br)c1Br`: the logP amounted to 4.98.

`Brc1cc(Br)cc(Br)c1` had a logP of 4.98.

The compound `Clc1cccc(Br)c1` gave a logP of 3.83.

As for `Clc1ccccc1Br`, the logP worked out at 3.83.

Test in the next series: not given
Settings: not given
This is another data set of the same source.
`CC[C@H]1OC(=O)C[C@@H](O)[C@H](C)[C@@H](O[C@@H]2O[C@H](C)[C@@H](O)[C@H](N(C)C)[C@H]2O)[C@@H](CC=O)C[C@@H](C)C(=O)/C=C/C(C)=C/[C@@H]1CO` registered a logP of 0.99.

In turn, `CO[C@@H]1[C@@H](O[C@@H]2O[C@H](C)[C@@H](O[C@H]3C[C@@](C)(O)[C@@H](OC(=O)CC(C)C)[C@H](C)O3)[C@H](N(C)C)[C@H]2O)[C@@H](CC=O)C[C@@H](C)C(=O)/C=C/C2OC2C[C@@H](C)OC(=O)C[C@H]1OC(C)=O` (some centres not stated) had a logP of 3.04.

`CC[C@H]1OC(=O)[C@H](C)[C@@H](O[C@H]2C[C@@](C)(OC)[C@@H](O)[C@H](C)O2)[C@H](C)[C@@H](O[C@@H]2O[C@H](C)C[C@H](N(C)C)[C@H]2O)[C@](C)(O)C[C@@H](C)C(N)[C@H](C)[C@H]2OC(=O)O[C@@]21C` (some centres not stated) showed a logP of 2.92.

In turn, `CCC1OC(=O)CC(O)C(C)C(OC2OC(C)C(OC3C[C@@](C)(O)C(O)C(C)O3)C(N(C)C)C2O)C(CC=O)CC(C)C(=O)C=CC(C)=CC1COC1OC(C)C(O)C(OC)C1OC` (some centres not stated) yielded a logP of 1.63.

As to `CO[C@H]1C[C@H](O[C@H]2[C@H](C)[C@@H](O[C@@H]3O[C@H](C)C[C@H](N(C)C)[C@H]3O)[C@@H](C)C[C@@]3(CO3)C(=O)[C@H](C)[C@@H](O)[C@@H](C)[C@@H](C)OC(=O)[C@@H]2C)O[C@@H](C)[C@@H]1O`, the logP was found to be 1.69.

For `CCC1OC(=O)CC(O)C(C)C(O[C@H]2OC(C)C(O)C(N(C)C)C2O)C(CCN2CC(C)CC(C)C2)CC(C)C(=O)C=CC(C)=CC1COC1OC(C)C(O)C(OC)C1OC` (some centres not stated), the logP was 3.8.

The nature of another series: method code SF-AS, from DOI: 10.1007/bf01648987.
Settings: not given
As to `CC(=O)NC1CC1c1ccccc1` (configuration not stated), the log partition coefficient (logP) is 1.43.

For the compound `Cc1cc(Cl)ccc1O`, the logP was 2.78.

`CCOC(=O)/C=C/c1ccccc1`: the logP was 2.91.

For the compound `Oc1ccc(Br)cc1Br`, the log partition coefficient (logP) was determined as 3.48.

Turning to `CN(C)c1ccccc1`, the logP turned out to be 2.29.
